Results published in ChEMBL document CHEMBL1126524, “Derivatives of quinuclidine as 5-HT3 receptor antagonists: influence of an additional carbonyl group on the recognition of chirality by the receptor” (Bioorg Med Chem Lett, 1993).

biological target: T1, Serotonin 3 (5-HT3) receptor (Rattus norvegicus, UniProt P35563+Q9JJ16); assay: Binding affinity at 5-hydroxytryptamine 3 receptor in rat entorhinal cortex by [3H]BRL-43694 displacement.; type: tissue-based
T1 sequence (P35563 whole entry): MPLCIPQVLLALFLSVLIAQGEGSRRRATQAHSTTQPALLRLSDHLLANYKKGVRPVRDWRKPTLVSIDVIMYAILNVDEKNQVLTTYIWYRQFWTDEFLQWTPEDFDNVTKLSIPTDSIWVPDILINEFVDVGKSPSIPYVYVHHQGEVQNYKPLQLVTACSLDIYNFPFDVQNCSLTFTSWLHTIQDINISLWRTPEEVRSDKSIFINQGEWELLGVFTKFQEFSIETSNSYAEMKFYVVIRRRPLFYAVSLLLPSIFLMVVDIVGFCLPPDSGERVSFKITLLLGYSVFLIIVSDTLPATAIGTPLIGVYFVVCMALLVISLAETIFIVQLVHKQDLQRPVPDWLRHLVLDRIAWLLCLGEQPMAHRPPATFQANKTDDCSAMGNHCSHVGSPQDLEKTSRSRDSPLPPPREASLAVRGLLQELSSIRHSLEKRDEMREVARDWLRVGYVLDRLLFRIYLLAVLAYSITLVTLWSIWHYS
T1 sequence (Q9JJ16 whole entry): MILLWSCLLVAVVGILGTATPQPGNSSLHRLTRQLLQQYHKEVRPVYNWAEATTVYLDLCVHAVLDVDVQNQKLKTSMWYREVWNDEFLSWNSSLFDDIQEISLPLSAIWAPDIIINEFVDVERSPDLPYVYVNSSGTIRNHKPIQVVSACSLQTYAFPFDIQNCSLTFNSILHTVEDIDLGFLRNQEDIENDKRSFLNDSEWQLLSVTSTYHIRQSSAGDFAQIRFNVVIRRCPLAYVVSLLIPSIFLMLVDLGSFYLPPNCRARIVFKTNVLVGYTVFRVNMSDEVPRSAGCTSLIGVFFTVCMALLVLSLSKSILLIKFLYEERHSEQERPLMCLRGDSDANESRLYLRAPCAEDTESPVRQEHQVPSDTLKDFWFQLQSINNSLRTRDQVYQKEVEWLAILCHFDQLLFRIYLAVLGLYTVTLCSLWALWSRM

SMILES	Ki [nM]
CCOc1ccccc1C(=O)N[C@@H]1CN2CCC1CC2	18.9
CCCOc1ccccc1C(=O)N[C@@H]1CN2CCC1CC2	11.2
O=C(N[C@H]1CN2CCC1CC2)c1ccccc1	1890
Nc1ccc2cccc3c2c1C(=O)N(C1CN2CCC1CC2)C3=O (centres undefined)	0.15
O=C(N[C@@H]1CN2CCC1CC2)c1ccccc1	147
COc1ccccc1C(=O)N[C@H]1CN2CCC1CC2	409
O=C1c2ccc3ccccc3c2C(=O)N1[C@@H]1CN2CCC1CC2	119
CCCOc1ccccc1C(=O)N[C@H]1CN2CCC1CC2	71.6
COc1ccccc1C(=O)N[C@@H]1CN2CCC1CC2	23.4
O=C(N[C@@H]1CN2CCC1CC2)c1cccc2ccccc12	32
COc1ccc2ccccc2c1C(=O)NC1CN2CCC1CC2 (centres undefined)	342
CCOc1ccccc1C(=O)N[C@H]1CN2CCC1CC2	100
O=C1c2ccc3ccccc3c2C(=O)N1[C@H]1CN2CCC1CC2	6

biological target: Serotonin 3 (5-HT3) receptor (Rattus norvegicus) (UniProt P35563+Q9JJ16); assay: Compound was tested as a 5-hydroxytryptamine 3 receptor antagonist in the rat by assessment of the inhibition of the Bezold-Jarisch effect, when administered intravenously; type: functional

SMILES	ID50 [mg/kg]
O=C1c2ccc3ccccc3c2C(=O)N1[C@H]1CN2CCC1CC2	18.6
